The values below come from patent US20110130285A1, “COMPOSITION FOR PROMOTING ROOT NODULE FORMATION OF PLANTS AND A METHOD FOR PROMOTING ROOT NODULE FORMATION OF PLANTS” (priority 2009, published 2011).

Test [1] deals with soybean (Tanba-kuro, Chusei-hikari-kuro, Sachiyutaka). Put plainly: Inosine sprayed on soil surface: root nodule formation and growth of soybean (Example 1). In kind it is in vivo. Particulars: 2 ppm and 20 ppm inosine solution, 250 ml sprayed on soil surface 7, 10 and 15 days after seeding, measured 20 days after seeding, all varieties Tanba-kuro, vs distilled water. An excerpt:
Various varieties of soybeans (black soybeans: Tanba-kuro and Chusei-hikari-kuro, white soybean: Sachiyutaka) were each seeded in 0.6 L of soil (marketed vermiculite, fertilizer was not added) contained in each of No. 4 pots (diameter: 12 cm). For each variety, 7 individuals showing good growth before development of primary leaf were selected per pot. Seven individuals were used for each of the following treatment groups.
2. 2 ppm Inosine solution group
3. 20 ppm Inosine solution group
4. 100 ppm Inosine solution group
Each solution in a volume of 250 ml was splayed on the soil surface in the pot, 7, 10 and 15 days after the seeding. The inosine concentrations in the soil given as a one-time application were 0.83 ppm for the 2 ppm solution group, 8.3 ppm for the 20 ppm solution group, and 41.7 ppm for the 100 ppm solution group, which were equivalent to 442 g/ha, 4,425 g/ha, and 22.1 kg/ha, respectively. The inosine solutions were prepared by diluting a 2% inosine solution (Ikuou, Shoko Agri Co., Ltd., containing 0.52% KOH as pH modifier in order to promote dissolution of inosine) with distilled water.
Twenty days after the seeding, the number of root nodules (FIG. 1) and the dry weight of aboveground parts (FIG. 2) were measured.

Test [2] has as its system Soybean (Sachiyutaka). Put plainly: Inosine applied by irrigation into soybean-growing black soil (Example 2). Conditions: 34 days after seeding; for Dry weight of aboveground part / Dry weight of underground part: 2 ppm inosine, irrigation, relative value, distilled water group taken as 100. In kind it is in vivo. The method, then: Soybean (Sachiyutaka) was seeded in 1 kg of soil (marketed black soil, moisture content: 35%) contained in each of the pots. Calcium superphosphate and potassium sulfate were added as fertilizers in the amounts of 40 mg/pot, in terms of P2O5 and K2O, respectively. The treatment groups included the distilled water group and the 2 ppm inosine solution group. One individual showing good growth before development of a primary leaf was selected from each pot, and five individuals were used for each treatment group. Either the distilled water or the inosine solution in a volume of 250 ml was applied to the soil in the pot by irrigation, 10, 14 and 19 days after the seeding. The inosine concentration in the soil given as a one-time application was 0.5 ppm, which was equivalent to 325 g/ha, in the 2 ppm solution group. Thirty-four days after the seeding, the number of root nodules (FIG. 3), the dry weight of root nodules (FIG. 4), the dry weight of aboveground parts, and the dry weight of underground parts (Table 1) were measured. The dry weight of root nodules, the dry weight of aboveground parts, and the dry weight of underground parts were indicated with relative values based on the values of the distilled water group, which were taken as 100. The application of the 2 ppm inosine solution increased all of the number of root nodules, the dry weight of root nodules, the dry weight of aboveground parts and the dry weight of underground parts.

Test [3] has as its system Soybean (Sachiyutaka). Briefly: Inosine applied to soybean by foliar spray, soil inoculated with Bradyrhizobium japonicum (Example 3). In kind it is in vivo. Conditions: 32 days after seeding; for Dry weight of aboveground part / Dry weight of underground part: foliar spray, table prints Inosine (ppm) 2, text 10 ppm, relative value, distilled water group taken as 100. The method, then:
Soybean (Sachiyutaka) was seeded in 0.7 kg of soil (marketed black soil, moisture content: 35%) contained in each of pots. Calcium superphosphate and potassium sulfate were added as fertilizers in the amounts of 28 mg/pot, in terms of P2O5 and K2O, respectively. As root nodule bacterium, “Mame-Zo” (containing a soybean root nodule bacterium, Bradyrhizobium japonicum, Tokachi Federation of Agricultural Cooperative Associations, http://www.nokyoren.or.jp/material.html) was added to the soil at a root nodule bacterium concentration of 10^4 cfu/cm^3 of soil. The treatment groups included the distilled water group and the 10 ppm inosine solution group. One individual showing good growth before development of a primary leaf was selected from each pot, and five individuals were used for each treatment group. Either distilled water or the inosine solution in a volume of 5 ml was applied by foliar spray, 10, 14 and 19 days after the seeding. To the distilled water and the inosine solution, a spreading composition (Approach BI, Kao Corp., “Approach” is a registered trade name of Kao Corp.) was added at a concentration of 0.1 v/v %. The spray amount of inosine given as a one-time application was 10 g/ha in the 10 ppm inosine solution group. Thirty-two days after the seeding, the number of root nodules (FIG. 5), the dry weight of root nodules (FIG. 6), the dry weight of aboveground parts, and the dry weight of underground parts (Table 2) were measured. The dry weight of root nodules, the dry weight of aboveground parts, and the dry weight of underground parts were indicated with relative values based on the values of the distilled water group, which were taken as 100. The application of the 10 ppm inosine solution increased all of the number of root nodules, the dry weight of root nodules, the dry weight of aboveground parts and the dry weight of underground parts.

For test [4], the system named is Soybean (Sachiyutaka). Put plainly: Inosine applied by irrigation to soybean-growing vermiculite, low and high soil nutrient (Example 4). The class given is in vivo. Conditions: 2 ppm and 20 ppm inosine solutions, irrigation 10, 17 and 25 days after seeding; 33 days after seeding; same soil fertilizer condition (low or high soil nutrient); vs distilled water groups. As to the method:
Soybean (Sachiyutaka) was transplanted to 1.4 L of soil (vermiculite, moisture content: 50%) contained in each of pots (diameter: 15 cm). The treatment groups included the distilled water groups (Groups 1 and 4) and the inosine application groups (Groups 2, 3, 5 and 6), in which 2 ppm and 20 ppm inosine solutions were applied (Ikuou [Shoko Agri Co., Ltd.] was diluted with distilled water and applied), as shown in Table 3. The distilled water groups and the inosine application groups both include a group in which calcium superphosphate and potassium sulfate were added as fertilizers in amounts of 40 mg/pot in terms of P2O5 and K2O, respectively, and a group in which an organic fertilizer (“Hanasaku Hiryo (1.5-9-4.5)”, Tosho Co., Ltd.) was added in an amount of 2 g/pot (N:P2O5:K2O=30:180:90 mg/pot). The root nodule bacterium (“Mame-Zo”, Tokachi Federation of Agricultural Cooperative Associations) was added at a concentration of 4×10^4 cfu/cm^3 of soil. One individual showing good growth before development of a primary leaf was selected from each pot, and five individuals were used for measurement of each treatment group. Either distilled water or each of the inosine solutions in a volume of 250 ml was applied by irrigation, 10, 17 and 25 days after the seeding. The inosine concentrations in the soil given as a one-time application were 0.36 ppm for the 2 ppm solution groups, and 3.6 ppm for the 20 ppm solution groups, which were equivalent to 282 g/ha and 2,825 g/ha, respectively. Under the low nutrient soil condition (Groups 1 to 3), etiolation of the leaves was observed and considered to be due to deficiency of trace components. Accordingly, a solution of the composition shown in Table 4 was applied in a volume of 100 ml/pot by irrigation, 20 days and 27 days after the transplantation of the soybean. Even in this case, the nutrient concentration was lower than that of the high soil nutrient groups (Groups 4 to 6). [table] Thirty-three days after the seeding, the number of root nodules (FIG. 7), the dry weight of root nodules (FIG. 8), the dry weight of aboveground parts (FIG. 9), and the dry weight of underground parts (FIG. 10) were measured. Under the same soil fertilizer condition, the applications of the 2 ppm and 20 ppm inosine solutions both increased all of the number of root nodules, the dry weight of root nodules, the dry weight of aboveground parts and the dry weight of underground parts, as compared with the distilled water groups (0 ppm groups).

Another test deals with plant roots. Particulars: applied to soil or hydroponic water; leaf vegetables, fruit vegetables, root vegetables, flowers and fruit trees (Japanese Patent No. 2927269); cited from earlier work.
The mark [5] stands for this setting: 2 ppm inosine solution, irrigation 10, 14 and 19 days after seeding, vs distilled water group.
The mark [6] stands for this setting: 10 ppm inosine solution, 5 ml foliar spray 10, 14 and 19 days after seeding, vs distilled water group.

Take `OC[C@H]1O[C@@H](n2cnc3c(O)ncnc32)[C@H](O)[C@@H]1O` [Inosine, inosine]: the “dry weight of aboveground parts” value in test [1] was “clearly increased”; in the test on Soybean (Sachiyutaka) [4], “increased”. Besides, the “number of root nodules” value in test [1] is listed as “clearly increased”; in the test on Soybean (Sachiyutaka) [2] (setting [5]) it was “increased”; in the test on Soybean (Sachiyutaka) [3] (setting [6]), “increased”; in the test on Soybean (Sachiyutaka) [4], “increased”. Further, the “dry weight of root nodules” value with Soybean (Sachiyutaka) [2] (setting [5]), in the test on Soybean (Sachiyutaka) [3] (setting [6]) and in the test on Soybean (Sachiyutaka) [4] was “increased” each time. In addition, the “Dry weight of aboveground part” value was 105.1 in the test on Soybean (Sachiyutaka) [2], “increased” in the test on Soybean (Sachiyutaka) [2] (listed as inosine), 122.0 in the test with Soybean (Sachiyutaka) [3] and “increased” in the test with Soybean (Sachiyutaka) [3] (listed as inosine). Besides, the “Dry weight of underground part” value in the test on Soybean (Sachiyutaka) [2] is 107.2; with Soybean (Sachiyutaka) [2] (listed as inosine) it was “increased”; in the test with Soybean (Sachiyutaka) [3], 111.9; with Soybean (Sachiyutaka) [3] (listed as inosine) it was “increased”. Also, the “dry weight of underground parts” value with Soybean (Sachiyutaka) [4] was “increased”. Besides, in the test with plant roots, the “growth of plant roots” value is recorded as “promote the growth of plant roots”.
